Results: ChEMBL document CHEMBL1123376, “3-(1H-tetrazol-5-yl)-4(3H)-quinazolinone sodium salt (MDL 427): a new antiallergic agent” (1986)

How the values were obtained:
Assay type in all cases: functional
Rattus norvegicus [1] = test: Compound was evaluated in rat PCA (passive cutaneous anaphylaxis) test administered at 100 mg/kg orally and the inhibition of PCA due to inhibition of IgE mediated release was determined; conditions: for inhibition in vivo at 100 mg/kg: Rattus norvegicus, po
Rattus norvegicus [2] = test: Evaluated in rat PCA (passive cutaneous anaphylaxis) test administered at 60 mg/kg ip and the inhibition of PCA due to inhibition of IgE mediated release was determined; conditions: route intraperitoneal; for inhibition in vivo at 60 mg/kg: Rattus norvegicus, ip
Rattus norvegicus [3] = test: Compound was evaluated in rat PCA(passive cutaneous anaphylaxis) test administered intravenously.; conditions: iv
Rattus norvegicus [4] = test: Compound was evaluated in rat PCA (passive cutaneous anaphylaxis) test administered intravenously; conditions: iv

SMILES | inhibition in vivo at 60 mg/kg (Rattus norvegicus [2]) [%] | also measured
O=CNc1ccccc1C(=O)Nc1nn[nH]n1 | 89 | inhibition in vivo at 100 mg/kg (Rattus norvegicus [1]): 91%
COc1cccc2c(=O)n(-c3nn[nH]n3)cnc12 | 44 | 
Cc1ccc2ncn(-c3nn[nH]n3)c(=O)c2c1 | 100 | 
Cc1nc2ccccc2c(=O)n1-c1nn[nH]n1 | 22 | 
O.O=c1c2ccccc2ncn1-c1nnn[n-]1.[Na+] |  | ED50 (Rattus norvegicus [3]): 0.2 mg/kg; Inhibition (Rattus norvegicus [1]; route oral): 97%; Inhibition (Rattus norvegicus [2]): 93%
Cc1cccc2c(=O)n(-c3nn[nH]n3)cnc12 | 64 | 
O=c1c2cc(Cl)ccc2ncn1-c1nn[nH]n1 | 89 | 
O=c1c2cc3c(cc2ncn1-c1nn[nH]n1)OCO3 | 90 | 
Nc1ccccc1C(=O)Nc1nn[nH]n1 | 59 | inhibition in vivo at 100 mg/kg (Rattus norvegicus [1]): 7%; ED50 (Rattus norvegicus [4]): 10.5 mg/kg
O=c1c2ccccc2ncn1-n1cnnc1 | 0 | 
CCc1nc2ccccc2c(=O)n1-c1nn[nH]n1 | 41 | 
O=C([O-])c1cc(=O)c2c(OCC(O)COc3cccc4oc(C(=O)[O-])cc(=O)c34)cccc2o1.[Na+].[Na+] [CROMOLYN SODIUM] | 100 | inhibition in vivo at 100 mg/kg (Rattus norvegicus [1]): 0%; ED50 (Rattus norvegicus [4]): 0.7 mg/kg
O=c1c2ccccc2ncn1-c1nc[nH]n1 | 75 | 
O=c1c2ccccc2ncn1-c1nnn[nH]1 | 100 | inhibition in vivo at 100 mg/kg (Rattus norvegicus [1]): 89%
Cc1cccc2ncn(-c3nn[nH]n3)c(=O)c12 | 80 | 
O=c1c2ccccc2nc(-c2ccccc2)n1-c1nn[nH]n1 | 27 | 
O=c1c2ccccc2ncn1-c1cc[nH]n1 | 5 | 
